Data reported in PMC6348446 (Journal of Medicinal Chemistry, 2018).

Molecular target: T1, BRD7 (Homo sapiens, UniProt Q9NPI1)
T1 construct: Western blot analysis of BRD9 and BRD7 levels after treatment of HeLa cells; endogenous in cells; host or cells: HeLa
T1 sequence (Q9NPI1 1-651): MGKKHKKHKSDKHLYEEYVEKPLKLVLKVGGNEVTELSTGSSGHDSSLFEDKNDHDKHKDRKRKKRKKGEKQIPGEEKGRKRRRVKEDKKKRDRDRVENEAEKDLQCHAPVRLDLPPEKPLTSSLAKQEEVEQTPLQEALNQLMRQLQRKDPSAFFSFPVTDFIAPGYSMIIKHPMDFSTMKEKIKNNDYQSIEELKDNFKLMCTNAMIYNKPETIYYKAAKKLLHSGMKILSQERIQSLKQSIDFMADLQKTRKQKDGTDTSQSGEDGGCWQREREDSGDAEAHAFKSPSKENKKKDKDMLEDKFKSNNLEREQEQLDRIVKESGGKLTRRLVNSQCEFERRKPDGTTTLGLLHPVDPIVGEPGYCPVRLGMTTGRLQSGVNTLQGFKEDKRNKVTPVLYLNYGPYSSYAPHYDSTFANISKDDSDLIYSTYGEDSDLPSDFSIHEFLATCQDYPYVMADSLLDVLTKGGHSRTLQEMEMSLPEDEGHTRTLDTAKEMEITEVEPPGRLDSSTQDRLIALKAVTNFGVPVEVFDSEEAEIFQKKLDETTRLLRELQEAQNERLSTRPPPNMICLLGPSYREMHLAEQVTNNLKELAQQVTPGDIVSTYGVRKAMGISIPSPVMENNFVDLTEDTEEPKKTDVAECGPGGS
Experiment: Western blot of BRD7 levels in RI-1 cells after compound treatment
Assay type: cell-based
Details: for BRD7 degradation: 4 h
Protocol: HeLa and Hek293 cells were seeded at either 0.3 × 10^6 or 0.5 × 10^6 cells per well in 6-well plate in 2 mL of medium. At 80% confluency, cells were treated with compounds at the desired concentration, with final DMSO concentration of 0.1% v/v. Cells were incubated at 37 °C and 5% of CO2 for the desired time before harvesting. For protein extraction from adherent cells, cells were washed twice with DPBS (Gibco) and lysed with RIPA buffer (Sigma-Aldrich), supplemented with cOmplete Mini EDTA-free protease inhibitor cocktail (Roche). Insoluble material was removed by centrifugation at 14 000 rpm for 15 min at 4 °C. Supernatant was collected and protein concentration was quantified by Bradford assay (Thermo Scientific no. 23200, mean of two replicates). For RI-1 cells, (1–1.5) × 10^6 cells/mL were seeded in 6-well plate in 2 mL of medium. The day after, cells were treated with compounds at the desired concentration, with final DMSO concentration of 0.1% v/v. Before harvesting, cells were incubated at 37 °C and 5% CO2 for the desired time. Cells were washed twice with DPBS (Gibco) and lysed with RIPA buffer (Sigma-Aldrich), supplemented with cOmplete Mini EDTA-free protease inhibitor cocktail (Roche). Lysates were sonicated (10 s) and centrifuged at 14 000 rpm for 20 min at 4 °C. Supernatant was collected, and protein concentration was quantified by Bradford assay (mean of two replicates). For EOL-1 and A-204 cell line, 20 000 cells were seeded in 300 μL per well in a 24-well plate and incubated at 37 °C overnight. Compounds were added from DMSO stock solution using a digital dispenser D300 (Tecan), normalizing for added DMSO, and cells were incubated at 37 °C for 18 h. Medium was removed, and cells were washed with PBS and lysed in 80 μL of lysis buffer (1% Triton, 350 mM KCl, 10 mM Tris, pH 7,4, phosphatase-protease inhibitor cocktail (Thermo Scientific no. 1861281), 10 mM DTT, Benzonase 0.5 μL/ml (Novagen no. 70746 10KU, 25 U/μL)) for 30 min on ice before insoluble debris was pelleted by centrifugation.
Cells were seeded in 6-well plates with 5 × 10^5 cells per well in 2 mL of complete medium to aim for 80% confluence on the day of treatment. At time zero, ML4924 was added at final concentration of 3 μM with 0.1% v/v of DMSO. DMSO was added to the remaining wells in order to match concentration of vehicle in all wells. […]
Proteins were resolved by SDS–PAGE on NuPage 4–12% Bis-Tris Midi Gel (Invitrogen) and transferred to Amersham Protran 0.45 NC nitrocellulose membrane (GE Healthcare) using wet transfer. […] ImageJ software was used for band quantification, and the last was reported as relative amount as ratio of each protein band relative to the lane’s loading control. […]

| decrease of BRD7 level (100 nM, 30 min) | BRD7 degradation (100 nM) | concentration window of maximal protein degradation of BRD7 (2 and 8 h) | SMILES |
| --- | --- | --- | --- |
| more than 50% | more than 90% | 0.1 to 1 µM | COc1cc(-c2cn(C)c(=O)c3cnccc23)cc(OC)c1CN1CCN(CCCCCOc2cc(-c3scnc3C)ccc2CNC(=O)[C@@H]2C[C@@H](O)CN2C(=O)[C@@H](NC(=O)C2(F)CC2)C(C)(C)C)CC1 [Compound 51, (2S,4R)-N-(2-((5-(4-(2,6-Dimethoxy-4-(2-methyl-1-oxo-1,2-dihydro-2,7-naphthyridin-4-yl)benzyl)piperazin-1-yl)pentyl)oxy)-4-(4-methylthiazol-5-yl)benzyl)-1-((S)-2-(1-fluorocyclopropane-1-carboxamido)-3,3-dimethylbutanoyl)-4-hydroxypyrrolidine-2-carboxamide] |
| – | no degradation | – | COc1cc(-c2cn(C)c(=O)c3cnccc23)cc(OC)c1CN1CCN(CCCCCOc2cc(-c3scnc3C)ccc2CNC(=O)[C@@H]2C[C@H](O)CN2C(=O)[C@@H](NC(=O)C2(F)CC2)C(C)(C)C)CC1 [cisVZ185] |
